Measured values taken from patent publication US20250179059A1 (The Regents of the University of California, priority 2021, published 2025).
Read-outs that look alike come from different tables or passages of the source.

Experiments:
[1] = system: human SKM-1 acute myeloid leukemia cells; experiment: SKM-1 antiproliferation cell-based assay (ATPlite); settings: Homo sapiens
Summary of the method: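 Log-phase cells in RPMI 1640/15% FBS were seeded at 34722 cells/mL and exposed for 4 days to nine-concentration DMSO serial dilutions in triplicate. Viability was read as ATP luminescence (ATPlite 1step), and IC50 values came from variable-slope non-linear regression.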

[2] = biological target: T1, human BRD4 bromodomain II (Homo sapiens, UniProt O60885); experiment: Bromodomain binding assay (AlphaScreen), BRD4 BDII
T1 construct: human BRD4 bromodomain II [based on Genbank NM_058243, residues 349-460]; host or cells: E. coli
Summary of the method: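 Compounds (10-point, 3-fold series) were preincubated 30 min at room temperature with E. coli-expressed N-terminal His6-tagged BRD4 BDII (residues 349-460) or BDI (residues 44-170) in 50 mM HEPES pH 7.5, 100 mM NaCl, 0.05% CHAPS, 0.1% BSA, 1% DMSO. Displacement of biotinylated tetra-acetylated H4 1-21 peptide was read by AlphaScreen; IC50 from curve fitting.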

[3] = SKM-1, SKM-1 antiproliferation assay
[4] = BRD4 BDII AlphaScreen assay, read-out: BRD4 BD2 IC50
[5] = SKM-1, 96 h, SKM-1 antiproliferation assay, 4 days, Table C2
[6] = AlphaScreen assay, Table C2, read-out: BRD4 BDII IC50

Row | Structure (SMILES) | GI50 [1, 3] [nM] | IC50 [2, 4] [nM] | GI50 [1, 5] [nM] | IC50 [2, 6] [nM]
1 | Cc1nc(-c2cccc(N3CCN(C(C)(C)C)CC3)c2)c(O)c(-c2ccc(-n3ccn(C)c3=O)c(Cl)c2)n1 [Example 920, 1-(4-{6-[3-(4-tert-Butyl-piperazin-1-yl)-phenyl]-5-hydroxy-2-methyl-pyrimidin-4-yl}-2-chloro-phenyl)-3-methyl-1,3-dihydro-imidazol-2-one] | 30 to 300 | > 100 | – | –
2 | Cn1ccn(-c2ccc(-c3cc(F)cc(-c4cncc(N5CC[C@H](N)C5)c4)c3O)cc2Cl)c1=O [Example 484, (S)-1-(3′-(5-(3-aminopyrrolidin-1-yl)pyridin-3-yl)-3-chloro-5′-fluoro-2′-hydroxy-[1,1′-biphenyl]-4-yl)-3-methyl-1H-imidazol-2(3H)-one] | – | – | 0.3 to 30 | 1 to 10
3 | Cn1ccn(-c2ccc(-c3cc(F)cc(-c4ccnc(N5CCCC5)c4)c3O)cc2Cl)c1=O [Example 613, 1-(3-chloro-5′-fluoro-2′-hydroxy-3′-(2-(pyrrolidin-1-yl)pyridin-4-yl)-[1,1′-biphenyl]-4-yl)-3-methyl-1H-imidazol-2(3H)-one] | – | – | 30 to 300 | 1 to 10
4 | O=C1CCC(=O)N1c1ccc(-c2cccc(-c3cncc(N4CCNCC4)c3)c2O)cc1F [Example 257, 1-(3-fluoro-2′-hydroxy-3′-(5-(piperazin-1-yl)pyridin-3-yl)-[1,1′-biphenyl]-4-yl)pyrrolidine-2,5-dione] | – | – | ≥ 3000 | > 100
5 | Cn1ccn(-c2ccc(-c3cc(F)cc(-c4ccnc(N5CCCC(C)(O)C5)c4)c3O)cc2Cl)c1=O (stereo not shown) [Example 714, 1-(3-chloro-5′-fluoro-2′-hydroxy-3′-(2-(3-hydroxy-3-methylpiperidin-1-yl)pyridin-4-yl)-[1,1′-biphenyl]-4-yl)-3-methyl-1H-imidazol-2(3H)-one] | – | – | 30 to 300 | 0.01 to 1
6 | Cn1ccn(-c2ccc(-c3cc(F)cc(-c4ccnc(N5CC6CC6(O)C5)c4)c3O)cc2Cl)c1=O (stereo not shown) [Example 770, 1-(3-chloro-5′-fluoro-2′-hydroxy-3′-(2-(1-hydroxy-3-azabicylco[3.1.0]hexan-3-yl)pyridin-4-yl)-[1,1′-biphenyl]-4-yl)-3-methyl-1H-imidazol-2(3H)-one] | – | – | 30 to 300 | 1 to 10
7 | COCC(C)(C)N1CCN(c2cc(-c3cc(F)cc(-c4ccc(-n5ccn(C)c5=O)c(Cl)c4)c3O)cn(C)c2=O)CC1 [Example 763] | – | – | 0.3 to 30 | 1 to 10
8 | CN1C2CCC1CN(c1cc(-c3cc(F)cc(-c4ccc(-n5ccn(C)c5=O)c(Cl)c4)c3O)ccn1)C2 [Example 513, 1-(3-chloro-5′-fluoro-2′-hydroxy-3′-(2-(8-methyl-3,8-diazabicyclo[3.2.1]octan-3-yl)pyridin-4-yl)-[1,1′-biphenyl]-4-yl)-3-methyl-1H-imidazol-2(3H)-one] | – | – | 0.3 to 30 | 1 to 10
9 | Cn1ccn(-c2ccc(-c3cc(F)cc(-c4ccnc(N5CCN[C@H](CN)C5)c4)c3O)cc2Cl)c1=O [Example 680, (R)-1-(3′-(2-(3-(aminomethyl)piperazin-l-yl)pyridin-4-yl)-3-chloro-5′-fluoro-2′-hydroxy-[1,1′-biphenyl]-4-yl)-3-methyl-1H-imidazol-2(3H)-one] | – | – | 30 to 300 | 0.01 to 1
10 | Cc1cc(-c2ccc(-n3ccn(C)c3=O)c(Cl)c2)c(O)c(-c2ccnc(N3CCC4(CCC(=O)N4)C3)c2)n1 (stereo not shown) [Example 1032, 7-(4-(3-chloro-4-(3-methyl-2-oxo-2,3-dihydro-1H-imidazol-1-yl)phenyl)-3-hydroxy-6-methyl-[2,4′-bipyridin]-2′'-yl)-1,7-diazaspiro[4.4]nonan-2-one] | 0.3 to 30 | 0.01 to 1 | – | –
11 | Cn1cc(-c2cc(F)cc(-c3ccc(-n4ccn(C)c4=O)c(Cl)c3)c2O)cc(N2CCC(C)(N)C2)c1=O (stereo not shown) [Example 723, 3-(3-amino-3-methylpyrrolidin-1-yl)-5-(3′-chloro-5-fluoro-2-hydroxy-4′-(3-methyl-2-oxo-2,3-dihydro-1H-imidazol-1-yl)-[1,1′-biphenyl]-3-yl)-1-methylpyridin-2(1H)-one] | – | – | 0.3 to 30 | 1 to 10
12 | CN1CCN(c2ccc(-c3cc(F)cc(-c4ccnc(C5=CCNCC5)c4)c3O)cc2Cl)C1=O [Example 379, 1-(3-chloro-5′-fluoro-2′-hydroxy-3′-(1′,2′,3′,6′-tetrahydro-[2,4′-bipyridin]-4-yl)-[1,1′-biphenyl]-4-yl)-3-methylimidazolidin-2-one] | – | – | 30 to 300 | 1 to 10
13 | Cn1ccn(-c2ccc(-c3cc(F)cc(-c4ccnc(N5CCN(CCCN)CC5)c4)c3O)cc2Cl)c1=O [Example 620, 1-(3′-(2-(4-(3-aminopropyl)piperazin-1-yl)pyridin-4-yl)-3-chloro-5′-fluoro-2′-hydroxy-[1,1′-biphenyl]-4-yl)-3-methyl-1H-imidazol-2(3H)-one] | – | – | 30 to 300 | 0.01 to 1
14 | CC(C)N1CCC[C@@]12CCN(c1cccc(-c3cc(F)cc(-c4ccc(-n5ccn(C)c5=O)c(Cl)c4)c3O)c1)C2 [Example 966, (S)-1-(3-chloro-5′-fluoro-2′-hydroxy-3″-(1-isopropyl-1,7-diazaspiro[4.4]nonan-7-yl)-[1,1′:3′,1″-terphenyl]-4-yl)-3-methyl-1,3-dihydro-2H-imidazol-2-one] | 30 to 300 | 1 to 10 | – | –
15 | Cn1ccn(-c2c(Cl)cc(-c3cc(F)cc(-c4ccnc(N5CCNCC5)c4)c3O)cc2C#N)c1=O [Example 448, 5-chloro-5′-fluoro-2′-hydroxy-4-(3-methyl-2-oxo-2,3-dihydro-1H-imidazol-1-yl)-3′-(2-(piperazin-1-yl)pyridin-4-yl)-[1,1′-biphenyl]-3-carbonitrile] | – | – | 300 to 3000 | 10 to 100
16 | COCCOc1ncc(-c2cc(F)cc(-c3ccc(N4CCN(C)C4=O)c(Cl)c3)c2O)cc1N1CCNCC1 [Example 393, 1-(3-chloro-5′-fluoro-2′-hydroxy-3′-(6-(2-methoxyethoxy)-5-(piperazin-1-yl)pyridin-3-yl)-[1,1′-biphenyl]-4-yl)-3-methylimidazolidin-2-one] | – | – | 30 to 300 | 1 to 10
17 | Cn1ccn(-c2ccc(-c3cc(F)cc(-c4ccnc(N5C[C@@H](N)[C@H](O)C5)c4)c3O)cc2Cl)c1=O [Example 490, 1-(3′-(2-((3R,4R)-3-amino-4-hydroxypyrrolidin-1-yl)pyridin-4-yl)-3-chloro-5′-fluoro-2′-hydroxy-[1,1′-biphenyl]-4-yl)-3-methyl-1H-imidazol-2(3H)-one] | – | – | 0.3 to 30 | 0.01 to 1
18 | CC(C)N1CCN(c2cc(-c3cc(F)cc(-c4ccc(-n5ccn(C)c5=O)c(Cl)c4)c3O)ccc2F)CC1 [Example 720, 1-(3-chloro-4″,5′-difluoro-2′-hydroxy-3″-(4-isopropylpiperazin-1-yl)-[1,1′:3′,1″-terphenyl]-4-yl)-3-methyl-1H-imidazol-2(3H)-one] | – | – | 0.3 to 30 | 0.01 to 1
19 | CN1CCN(c2ccc(-c3cc(-c4ccccc4)cc(-c4ccnc(N5CCNCC5)c4)c3O)cc2Cl)C1=O [Example 318, 1-(3-chloro-6′-hydroxy-5′-(2-(piperazin-1-yl)pyridin-4-yl)-[1,1′:3′,1″-terphenyl]-4-yl)-3-methylimidazolidin-2-one] | – | – | 300 to 3000 | > 100
20 | Cc1cc(-c2ccnc(N3CC[C@H](N)C3)c2)c(O)c(-c2ccc(N3CCN(C)C3=O)c(Cl)c2)c1 [Example 362, (S)-1-(3′-(2-(3-aminopyrrolidin-1-yl)pyridin-4-yl)-3-chloro-2′-hydroxy-5′-methyl-[1,1′-biphenyl]-4-yl)-3-methylimidazolidin-2-one] | – | – | 30 to 300 | 1 to 10
